Assay results as given in patent US6355799B1, “Substituted benzene compounds, process for their preparation, and herbicidal and defoliant compositions containing them” (ISK Americas Incorporated, priority 1997, dated 2002).

Assays:
Format in all cases: in vivo
[1] = system: redroot pigweed (Amaranthus retroflexus, AMARE); test: Pre-emerge test, greenhouse herbicide activity screening; conditions: rated 14 days after application, 0 = no damage, 100 = complete death
Method in brief: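 Rating: 0–100 visual injury, 14 DAA. Application: acetone, 187 l/ha, 15–1000 g ai/ha, flat-fan track sprayer with nozzle 40–45 cm above soil or canopy. Post-emerge runs used 0.25% v/v surfactant on 2–3 leaf plants.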

[2] = system: barnyardgrass (Echinochloa crus-galli, ECHCG); test: as above; conditions: rated 14 days after application, 0 = no damage, 100 = complete death
Method in brief: (§1)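 Visual ratings on a 0-100 scale (0 no damage, 100 all plants dead) were taken at 14 days after treatment. Rates of 15-1000 g ai/ha in acetone, 187 l/ha, were sprayed onto soil one day after planting (pre-emerge) or onto 2-3 leaf plants with 0.25% v/v surfactant (post-emerge).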

[3] = system: green foxtail (Setaria viridis, SETVI); test: as above; conditions: rated 14 days after application, 0 = no damage, 100 = complete death
Method in brief: as §1

[4] = system: ivyleaf morningglory (Ipomoea hederacea, IPOHE); test: as above; conditions: rated 14 days after application, 0 = no damage, 100 = complete death
Method in brief: as §1

[5] = system: johnsongrass (Sorghum halepense, SORHA); test: as above; conditions: rated 14 days after application, 0 = no damage, 100 = complete death
Method in brief: as §1

[6] = system: lambsquarters (Chenopodium album, CHEAL); test: as above; conditions: rated 14 days after application, 0 = no damage, 100 = complete death
Method in brief: as §1

[7] = system: large crabgrass (Digitaria sanguinalis, DIGSA); test: as above; conditions: rated 14 days after application, 0 = no damage, 100 = complete death
Method in brief: as §1

[8] = system: sicklepod (Cassia obtusifolia, CASOB); test: as above; conditions: rated 14 days after application, 0 = no damage, 100 = complete death
Method in brief: as §1

[9] = system: velvetleaf (Abutilon theophrasti, ABUTH); test: as above; conditions: rated 14 days after application, 0 = no damage, 100 = complete death
Method in brief: as §1

[10] = system: field corn (Zea mays L., var. Dekalb 535, CORN); test: Pre-emerge test, crop safety; conditions: rated 14 days after application, 0 = no damage, 100 = complete death
Method in brief: (§2)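 Plants grown in 10 cm pots of sandy loam mix received acetone-dissolved compounds through a moving flat-fan nozzle. Doses ranged from 15 to 1000 g ai/ha. Pre-emerge pots were seeded one day earlier, post-emerge pots 8–21 days earlier. Fourteen days on, each pot was graded 0–100 for damage.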

[11] = system: upland rice (Oryza sp., var. Tebonnet, RICE); test: Pre-emerge test, crop safety; conditions: rated 14 days after application, 0 = no damage, 100 = complete death
Method in brief: as §2

[12] = system: barnyardgrass (Echinochloa crus-galli, ECHCG); test: Post-emerge test, greenhouse herbicide activity screening; conditions: post-emerge, 14 days after application, rating scale 0-100
Method in brief: (§3)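 Herbicidal damage is scored 0 (none) to 100 (complete plant death) two weeks after a simulated field spray. Rates span 15–1000 g ai/ha, delivered in acetone at 187 l/ha. For post-emergence treatments, plants have 2–3 leaves and the spray carries 0.25% v/v non-ionic surfactant.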

[13] = system: green foxtail (Setaria viridis, SETVI); test: as above; conditions: post-emerge, 14 days after application, rating scale 0-100
Method in brief: as §3

[14] = system: ivyleaf morningglory (Ipomoea hederacea, IPOHE); test: as above; conditions: post-emerge, 14 days after application, rating scale 0-100
Method in brief: as §3

[15] = system: johnsongrass (Sorghum halepense, SORHA); test: as above; conditions: post-emerge, 14 days after application, rating scale 0-100
Method in brief: as §3

[16] = system: lambsquarters (Chenopodium album, CHEAL); test: as above; conditions: post-emerge, 14 days after application, rating scale 0-100
Method in brief: as §3

[17] = system: large crabgrass (Digitaria sanguinalis, DIGSA); test: as above; conditions: post-emerge, 14 days after application, rating scale 0-100
Method in brief: as §3

[18] = system: redroot pigweed (Amaranthus retroflexus, AMARE); test: as above; conditions: post-emerge, 14 days after application, rating scale 0-100
Method in brief: as §3

[19] = system: sicklepod (Cassia obtusifolia, CASOB); test: as above; conditions: post-emerge, 14 days after application, rating scale 0-100
Method in brief: as §3

[20] = system: velvetleaf (Abutilon theophrasti, ABUTH); test: as above; conditions: post-emerge, 14 days after application, rating scale 0-100
Method in brief: as §3

[21] = system: field corn (Zea mays L., var. Dekalb 535, CORN); test: Post-emerge test, crop safety; conditions: post-emerge, 14 days after application, rating scale 0-100
Method in brief: as §1

[22] = system: upland rice (Oryza sp., var. Tebonnet, RICE); test: Post-emerge test, crop safety; conditions: post-emerge, 14 days after application, rating scale 0-100
Method in brief: as §1

COc1c(Cl)cc(F)c(-n2c(=O)cc(C(F)(F)F)n(C)c2=O)c1NC(=O)C=Cc1ccco1 [2-92]
100: Pre-emerge Herbicidal Activity, phytotoxicity rating (0-100), AMARE ([1]; 250 g ai/ha) | Pre-emerge Herbicidal Activity, phytotoxicity rating (0-100), IPOHE ([4]; 250 g ai/ha) | Pre-emerge Herbicidal Activity, phytotoxicity rating (0-100), CHEAL ([6]; 63 g ai/ha) | Pre-emerge Herbicidal Activity, phytotoxicity rating (0-100), CHEAL ([6]; 250 g ai/ha) | Pre-emerge Herbicidal Activity, phytotoxicity rating (0-100), CASOB ([8]; 250 g ai/ha) | Pre-emerge Herbicidal Activity, phytotoxicity rating (0-100), ABUTH ([9]; 63 g ai/ha) | Pre-emerge Herbicidal Activity, phytotoxicity rating (0-100), ABUTH ([9]; 250 g ai/ha) | phytotoxicity rating IPOHE ([14]; 250 g ai/ha) | phytotoxicity rating ABUTH ([20]; 63 g ai/ha) | phytotoxicity rating ABUTH ([20]; 250 g ai/ha)
90: Pre-emerge Herbicidal Activity, phytotoxicity rating (0-100), SETVI ([3]; 250 g ai/ha)
50: Pre-emerge Herbicidal Activity, phytotoxicity rating (0-100), AMARE ([1]; 63 g ai/ha) | phytotoxicity rating AMARE ([18]; 250 g ai/ha)
80: phytotoxicity rating CHEAL ([16]; 250 g ai/ha)
0: Pre-emerge Herbicidal Activity, phytotoxicity rating (0-100), ECHCG ([2]; 63 g ai/ha) | Pre-emerge Herbicidal Activity, phytotoxicity rating (0-100), SORHA ([5]; 63 g ai/ha) | Pre-emerge Herbicidal Activity, phytotoxicity rating (0-100), DIGSA ([7]; 63 g ai/ha) | Pre-emerge phytotoxicity rating (0-100), crop damage, CORN ([10]; 63 g ai/ha) | Pre-emerge phytotoxicity rating (0-100), crop damage, RICE ([11]; 63 g ai/ha) | phytotoxicity rating ECHCG ([12]; 63 g ai/ha) | phytotoxicity rating ECHCG ([12]; 250 g ai/ha) | phytotoxicity rating SETVI ([13]; 63 g ai/ha) | phytotoxicity rating SETVI ([13]; 250 g ai/ha) | phytotoxicity rating SORHA ([15]; 63 g ai/ha) | phytotoxicity rating SORHA ([15]; 250 g ai/ha) | phytotoxicity rating DIGSA ([17]; 63 g ai/ha) | phytotoxicity rating DIGSA ([17]; 250 g ai/ha) | phytotoxicity rating CASOB ([19]; 63 g ai/ha) | phytotoxicity rating CORN ([21]; 63 g ai/ha)
20: Pre-emerge Herbicidal Activity, phytotoxicity rating (0-100), ECHCG ([2]; 250 g ai/ha) | Pre-emerge Herbicidal Activity, phytotoxicity rating (0-100), DIGSA ([7]; 250 g ai/ha) | Pre-emerge phytotoxicity rating (0-100), crop damage, CORN ([10]; 250 g ai/ha) | phytotoxicity rating IPOHE ([14]; 63 g ai/ha) | phytotoxicity rating CHEAL ([16]; 63 g ai/ha) | phytotoxicity rating AMARE ([18]; 63 g ai/ha)
40: Pre-emerge Herbicidal Activity, phytotoxicity rating (0-100), SORHA ([5]; 250 g ai/ha) | Pre-emerge Herbicidal Activity, phytotoxicity rating (0-100), CASOB ([8]; 63 g ai/ha)
60: phytotoxicity rating RICE ([22]; 250 g ai/ha)
10: Pre-emerge phytotoxicity rating (0-100), crop damage, RICE ([11]; 250 g ai/ha) | phytotoxicity rating RICE ([22]; 63 g ai/ha)
30: Pre-emerge Herbicidal Activity, phytotoxicity rating (0-100), SETVI ([3]; 63 g ai/ha) | Pre-emerge Herbicidal Activity, phytotoxicity rating (0-100), IPOHE ([4]; 63 g ai/ha) | phytotoxicity rating CASOB ([19]; 250 g ai/ha) | phytotoxicity rating CORN ([21]; 250 g ai/ha)
